Kd data for one compound are collected here from paper PMC9841397 (2023).

For orientation: Kd means the free concentration of one partner at which half of the binding sites on the other are occupied at equilibrium, for simple one-to-one binding.

The test system of the test is CMP-D-C3 (C3, ΔP1a) (RNA, riboswitch) GGAGCGUUACGUCCGCCCACGGCUCUUUAAAAACAAAAGGA
Description: ITC. Particulars: 100 mM K+, 20 mM Mg2+; 50 mM K-MOPS pH 7.5, 25 °C.

Take `NC(=O)c1ccc[n+]([C@@H]2O[C@H](COP(=O)(O)O)[C@@H](O)[C@H]2O)c1`: the Kd was determined as 18.3 ± 1.2 µM.
